The values that follow come from patent publication US20240076272A1, “Activators of Heme Regulated Inhibitor Kinase (HRI)” (The Brigham and Women`s Hospital, Inc., priority 2019, published 2024).

In data set [1] the test system is human melanoma CRL-2813 cells. As to the kind of experiment: sulforhodamine B (SRB) cell proliferation assay. It is filed as cell-based. Conditions: 5 days, read-out: IC50 (concentration that inhibits growth of human melanoma CRL-2813 cells by 50%). The protocol:
Cells were seeded in 96-well plates and maintained for 5 days in the presence of 0.5 μM to 20 μM of individual compound, and cell proliferation was measured by the sulforhodamine B (SRB) assay according to previous reports (see e.g., Palakurthi et al, Cancer Res. 60 (2000) 2919-2925): briefly, at the end of a 5-day treatment, cells were fixed in 10% cold trichloroacetic acid. Cell number was estimated by measuring the remaining bound dye of sulforhodamine B after washing. The percentage of growth was calculated by using the equation: 100×[(T-T0)/(C-T0)], where T and C represent the absorbance in treated and control cultures at Day 5, and T0 at time zero, respectively. If T was less than T0, cell death had occurred and was calculated from 100×[(T-T0)/T0].
All 4-CF3-ΦOcAlkΦUs were tested in the sulforhodamine B (SRB) cell proliferation assay to establish the concentrations that inhibit human melanoma CRL-2813 cells growth by 50% (IC50) (see Table 1). This activity reflects a combined effect of membrane permeability and overall anti-proliferative effects that include on target and off-target effects.

Data set [2] deals with eIF2α phosphorylation (ATF-4 5′UTR luciferase reporter). As to the kind of experiment: surrogate eIF2α phosphorylation dual-luciferase reporter (DLR) assay. It is filed as cell-based. Conditions: F/R luciferase ratio normalized to DMSO wells (F/R=1); for fold induction at 1.25 µM: read-out: Fold stimulation of ATF-4 Surrogate eIF2α @ 1.25 μM; for fold induction at 5 µM: read-out: Fold stimulation of ATF-4 Surrogate eIF2α @ 5 μM. The source says:
The dual luciferase expression vector and other plasmids used in the Examples provided herein have been previously reported (see e.g., Ziegeler et al, J. Biol. Chem. 285 (2010) 15408-15419). The dual luciferase surrogate eIF2α phosphorylation assay, has also been previously reported (see e.g., Chen et al, Nat. Chem. Biol. 7 (2011) 610-616). Briefly, a dual Renilla and Firefly luciferase mammalian reporter vector that transcribes both mRNAs from the same bi-directional enhancer/promoter complex was utilized for generation of surrogate eIF2α phosphorylation assay (see e.g., Ziegeler et al, J. Biol. Chem. 285 (2010) 15408-15419). Both mRNAs contained the same 90 nucleotide plasmid derived 5′UTR. In addition, 5′UTR of the Firefly luciferase open reading frame was fused in-frame to the 267 nucleotide ATF-4 5′UTR (see e.g., Chen et al, Nat. Chem. Biol. 7 (2011) 610-616).
Cells expressing firefly and renilla luciferases were assayed with a dual glow luciferase assay kit, per manufacturer's instruction (Promega Inc., Madison, WI). The data calculations were carried out as the ratio of firefly to renilla luciferase signal (see e.g., Ziegeler et al, J. Biol. Chem. 285 (2010) 15408-15419). Dose-response curves were obtained, and triplicate data points were fitted to the logistical sigmoidal model using nonlinear least-squares regression performed in GraphPad Prism 6.
All newly synthesized N,N′-disubstituted ureas were initially evaluated by testing in the surrogate eIF2α phosphorylation dual-luciferase reporter (DLR) assay (see e.g., Chen et al, Nat. Chem. Biol. 7 (2011) 610-616; and Ziegeler et al, J. Biol. Chem. 285 (2010) 15408-15419). Briefly, this assay takes advantage of the fact that activated HRI phosphorylates eIF2α which inhibits eIF2 guanine nucleotide exchange factor eIF2B, responsible for exchanging the GDP in the eIF2·GDP complex for GTP. The reduction in the recycling of eIF2·GDP into eIF2·GTP interferes with the formation of eIF2·GTP·Met-tRNAi ternary complex. […] These include mRNA coding for activating transcription factor 4 (ATF-4) (see e.g., Aktas et al, Oncotarget, 4 (2013) 1606-1617; Aktas et al, Oncotarget, 6 (2015) 6902-6914; and Aktas et al, Proc. Natl. Acad. Sci. U.S.A. 95 (1998) 8280-8285).
In the present assay, firefly (F) luciferase mRNA was fused to the 5′UTR of ATF-4 mRNA that had multiple uORFs, while renilla (R) luciferase mRNA was fused to a 5′UTR lacking any uORFs. Agents that reduce the amount of the eIF2·GTP·Met-tRNAi ternary complex, such as N,N′-disubstituted ureas that activate HRI, increase F luciferase expression while reducing the R luciferase expression, resulting in an increased F/R luciferase ratio. The ureas of the present application were tested at 10 μM, 5 μM, 2.5 μM, and 1.25 μM concentrations in 96-well assay plates (see e.g., Chen et al, Nat. Chem. Biol. 7 (2011) 610-616; and Bai et al, ChemBioChem, 14 (2013) 1255-1262). The activity scores as the F/R ratios were calculated for every compound-treated well and normalized to F/R ratio of vehicle-treated (DMSO) wells in the same plate, arbitrarily set at 1 (F/R=1). Data obtained in the surrogate dual-luciferase eIF2α phosphorylation (DLR) assay for the series of 1-phenyl-3/4-(4-trifluorometyl) phenoxy-cycloalkyl)ureas (4-CF3-ΦcAlkΦUs) and 1-phenyl-3-(5-(4-(trifluoromethyl) phenoxy)pyrimidin-2-yl)ureas (4-CF3-ΦOPyΦUs) described herein are shown in Tables 1-2.

The test system of data set [3] is cyclin D1. In words: Western blot, cyclin D1 expression in CRL-2813 cells. In kind it is cell-based, human. Conditions: 5 μM, 8 hours, Western blot (FIG. 2B). As for the experimental part: (§1) FIGS. 2A-2B show HRI activators of the present application induce eIF2α phosphorylation and modify its downstream effectors. In FIG. 2A, CRL-2813 cells were treated with 5 μM of each compound for 2 hours, cell lysates were probed with phosphorylated (P-eIF2α) and total eIF2α (T-eIF2α) and β-actin specific antibodies. In FIG. 2B, CRL-2813 cells were treated with 5 μM HRI activators for 8 hours and lysates were immunoblotted with antibodies against CHOP, p27^KiPl, cyclin D1 and β-actin.
(§2) Cells cultured under recommended media conditions were plated and maintained in serum-containing media without antibiotics in 14-cm plates (Nunc) until reaching 70% confluence. Cells were then treated with compounds for 6 h, washed with cold PBS once, and lysed with M-PER Mammalian Protein Extraction Reagent (Pierce) for 30 min on ice. The cell lysates were centrifuged at 12,000 RPM for 15 min and the supernatants were transferred to fresh tubes and the concentrations were determined by BCA (Pierce). Equal amount of proteins were mixed with Laemmli Sample Buffer, heated at 100° C. for 5 min, separated by SDS-PAGE, and probed with anti-phosphoserine-51-eIF2α (Phos-eIF2α), anti-total eIF2α-specific antibodies (Total-eIF2α) (Biosource International, Hopkinton, MA), anti-CHOP, anti-cyclin D1 or anti-actin (Santa Cruz Biotechnology, CA) using procedures substantially similar to previous reports (see e.g., Aktas et al, Mol. Cell. Biol. 17 (1997) 3850-3857).
(§3) Endogenous eIF2α is the best-known substrate of HRI and the upstream regulator of the eIF2·GTP·Met-tRNAi ternary complex abundance, while CHOP expression is a downstream effector of eIF2α phosphorylation. For assessing eIF2α phosphorylation, blotted cell lysates were treated for two hours with vehicle or selected compounds using antibodies specific for the total-eIF2α and the phosphorylated-eIF2α (T-eIF2α and [PhoS^51]-eIF2α), respectively (see e.g., Aktas et al, J. Nutr. 134 (2004) 2487S-2491S) (see FIG. 2A).

The subject of data set [4] is CHOP. In words: Western blot, CHOP expression in CRL-2813 cells. Conditions: 5 μM, 8 hours, Western blot (FIG. 2B). In kind it is cell-based, human. As for the experimental part: as §1, §2, §3

Like-named read-outs stand apart in the source and are kept apart here.

With `Cc1ccc(F)cc1NC(=O)N[C@H]1CC[C@H](Oc2ccc(C(F)(F)F)cc2)C1` [Compound 7-V, 1-(5-Fluoro-2-methylphenyl)-3-((1S,3S)-3-(4-(trifluoromethyl)phenoxy)cyclopentyl)urea], the melting point was 209.8 to 211.4 °C. In addition, the IC50 in data set [1] (Homo sapiens, CRL2813, 120 h) is 8 ± 2.5 µM. In data set [2] (1.25 μM), the fold induction at 1.25 µM was found to be 1.4 ± 0.1. The fold induction at 5 µM in data set [2] (5 μM) was determined as 1.3 ± 0.4.
`Cc1ccc(F)cc1NC(=O)N[C@H]1CC[C@H](Oc2ccc(C(F)(F)F)cc2)CC1` [Compound 7-VI, 1-(5-Fluoro-2-methylphenyl)-3-(trans-4-(4-(trifluoromethyl)phenoxy)cyclohexyl)urea] had a melting point of 238.2 to 239.8 °C. Further, in data set [1] (Homo sapiens, CRL2813, 120 h), the IC50 is 5.3 ± 1.8 µM. For the same molecule, the “expression of cyclin D1 relative to DMSO” value in data set [3] was “decreased the expression of cyclin D1”. Further, in data set [2] (1.25 μM), the fold induction at 1.25 µM was determined as 1.8 ± 0.8. For the same molecule, in data set [2] (5 μM), the fold induction at 5 µM is 1.5 ± 0.4. In addition, in data set [4], the “expression of CHOP relative to DMSO” value is listed as “increased the expression of CHOP”.
As to `N#Cc1ccc(NC(=O)N[C@H]2CC[C@H](Oc3ccc(C(F)(F)F)cc3)CC2)c(F)c1` [Compound 8-VI, 1-(4-Cyano-2-fluorophenyl)-3-(trans-4-(4-(trifluoromethyl)phenoxy)cyclohexyl)urea], the melting point lay in the range of 221.6 to 223.6 °C. Moreover, the IC50 in data set [1] (Homo sapiens, CRL2813, 120 h) was 1.4 ± 0.3 µM. The fold induction at 1.25 µM in data set [2] (1.25 μM) turned out to be 2.4 ± 0.4. Further, the fold induction at 5 µM in data set [2] (5 μM) turned out to be 6.2 ± 1.3.
`N#Cc1cc(F)cc(NC(=O)N[C@H]2CC[C@H](Oc3ccc(C(F)(F)F)cc3)CC2)c1` [Compound 9-VI, 1-(3-Cyano-5-fluorophenyl)-3-(trans-4-(4-(trifluoromethyl)phenoxy)cyclohexyl)urea] showed a melting point of 219.8 to 222 °C. For the same molecule, the IC50 in data set [1] was determined as 1.4 ± 0.3 µM. Besides, the “Fold stimulation of ATF-4 Surrogate eIF2α @ 1.25 μM” value in data set [2] (1.25 μM) is 3.7 ± 0.8 fold. Besides, the “Fold stimulation of ATF-4 Surrogate eIF2α @ 5 μM” value in data set [2] (5 μM) came to 6.1 ± 1.1 fold.
As for `O=C(Nc1ccc(F)c(F)c1)N[C@H]1C[C@H](Oc2ccc(C(F)(F)F)cc2)C1` [Compound 10-IV, 1-(3,4-difluorophenyl)-3-(trans-3-(4-(trifluoromethyl)phenoxy)cyclobutyl)urea], the melting point was in the range of 179.9 to 182 °C. Further, the IC50 in data set [1] (Homo sapiens, CRL2813, 120 h) is 5.5 ± 0.7 µM. Besides, the fold induction at 1.25 µM in data set [2] (1.25 μM) came to 2.2 ± 0.5. In data set [2] (5 μM), the fold induction at 5 µM stood at 4.5 ± 0.4.
As for `O=C(Nc1ccc(F)c(F)c1)N[C@H]1CC[C@H](Oc2ccc(C(F)(F)F)cc2)C1` [Compound 10-V, 1-(3,4-Difluorophenyl)-3-((1S,3S)-3-(4-(trifluoromethyl)phenoxy)cyclopentyl)urea], the melting point fell in the range of 175.4 to 177.5 °C. Also, the IC50 in data set [1] (Homo sapiens, CRL2813, 120 h) came out at 5.2 ± 1.5 µM. Further, in data set [2] (1.25 μM), the fold induction at 1.25 µM is 0.9 ± 0.2. For the same molecule, the fold induction at 5 µM in data set [2] (5 μM) came to 3.5 ± 0.7.
With `O=C(Nc1ccc(F)c(F)c1)N[C@H]1CC[C@H](Oc2ccc(C(F)(F)F)cc2)CC1` [Compound 10-VI, 1-(3,4-Difluorophenyl)-3-(trans-4-(4-(trifluoromethyl)phenoxy)cyclohexyl)urea], the melting point fell in the range of 228.2 to 229.8 °C. In addition, the IC50 in data set [1] (Homo sapiens, CRL2813, 120 h) stood at 1.3 ± 0.3 µM. The fold induction at 1.25 µM in data set [2] (1.25 μM) came to 2.9 ± 0.7. Further, in data set [2] (5 μM), the fold induction at 5 µM was 5.6 ± 1.2.
In turn, `O=C(Nc1cccc(F)c1F)N[C@H]1C[C@H](Oc2ccc(C(F)(F)F)cc2)C1` [Compound 11-IV, 1-(2,3-Difluorophenyl)-3-(trans-3-(4-(trifluoromethyl)phenoxy)cyclobutyl)urea] displayed a melting point of 205.9 to 208 °C. For the same molecule, in data set [1] (Homo sapiens, CRL2813, 120 h), the IC50 was 2.3 ± 0.9 µM. Moreover, the fold induction at 1.25 µM in data set [2] (1.25 μM) amounted to 0.8 ± 0.1. The fold induction at 5 µM in data set [2] (5 μM) was determined as 6.2 ± 2.7.
Take `O=C(Nc1cccc(F)c1F)N[C@H]1CC[C@H](Oc2ccc(C(F)(F)F)cc2)CC1` [Compound 11-VI, 1-(2,3-Difluorophenyl)-3-(trans-4-(4-(trifluoromethyl)phenoxy)cyclohexyl)urea]: the melting point lay within 227.3 to 229.9 °C. Besides, in data set [1] (Homo sapiens, CRL2813, 120 h), the IC50 stood at 1.6 ± 2 µM. Also, the “expression of cyclin D1 relative to DMSO” value in data set [3] was “decreased the expression of cyclin D1”. Further, the fold induction at 1.25 µM in data set [2] (1.25 μM) amounted to 4.7 ± 1. Also, in data set [2] (5 μM), the fold induction at 5 µM came out at 9.9 ± 1.3. Besides, in data set [4], the “expression of CHOP relative to DMSO” value is “increased the expression of CHOP”.
